Test results taken from patent publication US9611278B2 (Merck Sharp & Dohme Corp., priority 2013, dated 2017).
pEC50: −log10 of the molar value.

Legend:
[1] = target: T1, sGC α1/β1 heterodimer stably expressed in CHO-K1 cells (CHO-K1/sGC) (Homo sapiens, UniProt Q02108+Q02153); experiment: Cell-based sGC Functional Assay (CASA Assay); settings: for Emax: CHO-K1, activation as percentage of maximum cGMP production of Compound A (set to 100%), read-out: % Act.; for pEC50: inflection point of cGMP generation in CHO-K1/sGC cells, 4P fit, 1 hr at 37° C., read-out: IP
T1 construct: expressed in transfected cells
T1 sequence (Q02108 1-690): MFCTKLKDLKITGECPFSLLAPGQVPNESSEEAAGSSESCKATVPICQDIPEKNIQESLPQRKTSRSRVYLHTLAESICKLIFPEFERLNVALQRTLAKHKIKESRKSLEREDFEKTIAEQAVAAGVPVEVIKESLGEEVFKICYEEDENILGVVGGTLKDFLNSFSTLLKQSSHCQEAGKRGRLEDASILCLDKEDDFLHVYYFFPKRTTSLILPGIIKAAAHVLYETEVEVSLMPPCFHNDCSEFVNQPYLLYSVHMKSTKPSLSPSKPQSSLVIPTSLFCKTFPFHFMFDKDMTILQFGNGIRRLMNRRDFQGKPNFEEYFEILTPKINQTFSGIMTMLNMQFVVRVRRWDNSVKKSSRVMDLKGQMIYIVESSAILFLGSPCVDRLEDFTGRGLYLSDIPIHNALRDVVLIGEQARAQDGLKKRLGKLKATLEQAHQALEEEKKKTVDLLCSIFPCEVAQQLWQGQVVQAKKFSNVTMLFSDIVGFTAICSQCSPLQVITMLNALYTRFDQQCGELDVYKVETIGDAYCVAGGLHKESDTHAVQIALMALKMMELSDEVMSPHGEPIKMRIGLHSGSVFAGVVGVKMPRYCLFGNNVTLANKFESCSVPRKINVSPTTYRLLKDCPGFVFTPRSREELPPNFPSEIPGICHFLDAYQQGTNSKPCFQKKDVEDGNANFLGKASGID
T1 sequence (Q02153 1-619): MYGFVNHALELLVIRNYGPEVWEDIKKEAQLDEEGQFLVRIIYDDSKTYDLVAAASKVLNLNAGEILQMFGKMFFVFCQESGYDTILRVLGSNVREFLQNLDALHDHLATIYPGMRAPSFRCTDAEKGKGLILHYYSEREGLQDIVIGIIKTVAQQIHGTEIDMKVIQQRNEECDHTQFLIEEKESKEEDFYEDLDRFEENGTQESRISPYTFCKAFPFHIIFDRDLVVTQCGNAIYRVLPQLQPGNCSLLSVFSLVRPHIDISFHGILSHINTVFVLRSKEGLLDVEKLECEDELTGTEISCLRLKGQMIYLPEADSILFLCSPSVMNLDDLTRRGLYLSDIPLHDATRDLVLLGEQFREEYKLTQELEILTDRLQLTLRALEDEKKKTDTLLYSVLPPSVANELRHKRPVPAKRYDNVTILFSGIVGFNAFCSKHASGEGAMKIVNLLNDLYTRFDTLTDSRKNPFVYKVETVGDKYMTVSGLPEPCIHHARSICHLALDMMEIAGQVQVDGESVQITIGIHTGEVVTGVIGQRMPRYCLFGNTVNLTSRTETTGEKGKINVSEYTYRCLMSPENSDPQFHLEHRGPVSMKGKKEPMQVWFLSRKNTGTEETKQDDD
In short: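 CHO-K1 cells stably expressing human sGC α1/β1 were incubated with compound for 1 h at 37 °C in buffer with 0.5 mM IBMX and 2.5% DMSO, with or without 1 μM DETA-NO. Intracellular cGMP was read by HTRF and expressed as percentage of maximal activation by reference activator Compound A. Values came from a 4-parameter fit.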

[2] = test system: Spontaneously hypertensive rats (SHR); experiment: Acute Efficacy in Spontaneously Hypertensive Rats (SHR); assay type: in vivo, rat; settings: single oral dose
Text: Spontaneously hypertensive rats (SHR, male, Charles River) were implanted with DSI TA11PA-C40 telemetry device (Data Sciences, Inc., St. Paul, Minn.) under isoflurane or ketamine/metomidine anesthesia. The telemetry unit catheter was inserted into the descending aorta via the femoral artery and the telemetry device was implanted subcutaneously in the left flank area. Animals were allowed to recover from surgery for 14 days before the start of any studies. Blood pressure, heart rate, and activity signals from conscious, freely moving rats were recorded continuously for 30 seconds every 10 min. On the day prior to administration of compound, a single oral dose of vehicle (10% transcutol/20% Cremophor/70% water) was administered to all animals to establish baseline control data. The blood pressure lowering efficacy of compound (PO) or vehicle was evaluated following a single oral gavage. Data were collected as hourly averages, and changes in blood pressure were calculated by subtracting control baseline data on an hourly basis. Animals were maintained on normal diet with a 12 hour light-dark cycle.
Maximum peak decreases of systolic blood pressure (SBP) in SHR at a particular P.O. dose (mpk milligrams per kilogram) for the following representative compounds are provided in Table 9. Category A=SBP in SHRs <15 mmHg; Category B=SBP in SHRs 15-25 mmHg; Category C=SBP in SHRs >25 mmHg

Compound | Emax [1] | pEC50 [1] | Category: maximum peak decrease of systolic blood pressure (SBP) in SHR ([2]; P.O. 1 mpk) | Category: maximum peak decrease of systolic blood pressure (SBP) in SHR ([2]; P.O. 0.3 mpk) | Category: maximum peak decrease of systolic blood pressure (SBP) in SHR ([2]; P.O. 3 mpk)
[2H]C([2H])([2H])n1ncc2c(-c3nc(N)c4c(n3)NC(=O)C4(c3cn(C)nn3)C3CC3)nc(CCC(F)(F)C(F)(F)F)nc21 (single isomer, unassigned) [Example 54, 4-Amino-5-cyclopropyl-5-(1-methyl-1H-1,2,3-triazol-4-yl)-2-(1-(methyl-d3)-6-(3,3,4,4,4-pentafluorobutyl)-1H-pyrazolo[3,4-d]pyrimidin-4-yl)-5,7-dihydro-6H-pyrrolo[2,3-d]pyrimidin-6-one] | 93% | 6.64 | B (Category B=SBP in SHRs 15-25 mmHg) |  | 
Cn1cc(C2(C3CC3)C(=O)Nc3nc(-c4nc(CCC(F)(F)C(F)(F)F)nc5c4cnn5C)nc(N)c32)nn1 (single isomer, unassigned) [Example 55, 4-Amino-5-cyclopropyl-5-(1-methyl-1H-1,2,3-triazol-4-yl)-2-(1-methyl-6-(3,3,4,4,4-pentafluorobutyl)-1H-pyrazolo[3,4-d]pyrimidin-4-yl)-5,7-dihydro-6H-pyrrolo[2,3-d]pyrimidin-6-one] | 118% | 6.60 | B (Category B=SBP in SHRs 15-25 mmHg) |  | 
CC(C)n1cc(C2(C)C(=O)Nc3nc(-c4nc(CCC(F)(F)C(F)(F)F)nc5c4cnn5C)nc(N)c32)nn1 (single isomer, unassigned) [Example 56, 4-Amino-5-(1-isopropyl-1H-1,2,3-triazol-4-yl)-5-methyl-2-(1-methyl-6-(3,3,4,4,4-pentafluorobutyl)-1H-pyrazolo[3,4-d]pyrimidin-4-yl)-5,7-dihydro-6H-pyrrolo[2,3-d]pyrimidin-6-one] | 126% | 5.99 | C (Category C=SBP in SHRs >25 mmHg) |  | 
CCn1cc(C2(CC)C(=O)Nc3nc(-c4nc(CCC(F)(F)C(F)(F)F)nc5c4cnn5C)nc(N)c32)nn1 (single isomer, unassigned) [Example 66, 4-Amino-5-ethyl-5-(1-ethyl-1H-1,2,3-triazol-4-yl)-2-(1-methyl-6-(3,3,4,4,4-pentafluorobutyl)-1H-pyrazolo[3,4-d]pyrimidin-4-yl)-5,7-dihydro-6H-pyrrolo[2,3-d]pyrimidin-6-one] | 108% | 6.49 | B (Category B=SBP in SHRs 15-25 mmHg) |  | 
Cn1ncc2c(-c3nc(N)c4c(n3)NC(=O)C4(C)n3cnnn3)nc(CCC(F)(F)C(F)(F)F)nc21 (single isomer, unassigned) [Example 84, 4-Amino-5-methyl-2-(1-methyl-6-(3,3,4,4,4-pentafluorobutyl)-1H-pyrazolo[3,4-d]pyrimidin-4-yl)-5-(1H-tetrazol-1-yl)-5,7-dihydro-6H-pyrrolo[2,3-d]pyrimidin-6-one] | 111% | 6.44 | A (Category A=SBP in SHRs <15 mmHg) |  | 
[2H]C([2H])([2H])n1ncc2c(-c3nc(N)c4c(n3)NC(=O)C4(C)c3noc(C)n3)nc(CCC(F)(F)C(F)(F)F)nc21 (stereo not drawn) [Example 19, 4-Amino-5-methyl-5-(5-methyl-1,2,4-oxadiazol-3-yl)-2-(1-(methyl-d3)-6-(3,3,4,4,4-pentafluorobutyl)-1H-pyrazolo[3,4-d]pyrimidin-4-yl)-5,7-dihydro-6H-pyrrolo[2,3-d]pyrimidin-6-one] | 157% | 6.65 | C (Category C=SBP in SHRs >25 mmHg) |  | 
[2H]C([2H])([2H])n1ncc2c(-c3nc(N)c4c(n3)NC(=O)C4(c3nnnn3C)C3CC3)nc(CCC(F)(F)C(F)(F)F)nc21 (stereo not drawn) [Example 25, 4-Amino-5-cyclopropyl-5-(1-methyl-1H-tetrazol-5-yl)-2-(1-(methyl-d3)-6-(3,3,4,4,4-pentafluorobutyl)-1H-pyrazolo[3,4-d]pyrimidin-4-yl)-5,7-dihydro-6H-pyrrolo[2,3-d]pyrimidin-6-one] | 93% | 6.00 |  |  | C (Category C=SBP in SHRs >25 mmHg)
[2H]C([2H])([2H])n1ncc2c(-c3nc(N)c4c(n3)NC(=O)C4(c3nnc(C4CC4)o3)C3CC3)nc(CCC(F)(F)C(F)(F)F)nc21 (stereo not drawn) [Example 38, 4-Amino-5-cyclopropyl-5-(5-cyclopropyl-1,3,4-oxadiazol-2-yl)-2-(1-(methyl-d3)-6-(3,3,4,4,4-pentafluorobutyl)-1H-pyrazolo[3,4-d]pyrimidin-4-yl)-5,7-dihydro-6H-pyrrolo[2,3-d]pyrimidin-6-one] | 165% | 6.58 | C (Category C=SBP in SHRs >25 mmHg) |  | 

Second part, led by results:

Emax [1] | pEC50 [1] | Compound | Category: maximum peak decrease of systolic blood pressure (SBP) in SHR ([2]; P.O. 1 mpk) | Category: maximum peak decrease of systolic blood pressure (SBP) in SHR ([2]; P.O. 0.3 mpk) | Category: maximum peak decrease of systolic blood pressure (SBP) in SHR ([2]; P.O. 3 mpk)
105% | 6.59 | CCn1cc(C2(C)C(=O)Nc3nc(-c4nc(CCC(F)(F)C(F)(F)F)nc5c4cnn5C)nc(N)c32)nn1 (single isomer, unassigned) [Example 69, 4-Amino-5-(1-ethyl-1H-1,2,3-triazol-4-yl)-5-methyl-2-(1-methyl-6-(3,3,4,4,4-pentafluorobutyl)-1H-pyrazolo[3,4-d]pyrimidin-4-yl)-5,7-dihydro-6H-pyrrolo[2,3-d]pyrimidin-6-one] | C (Category C=SBP in SHRs >25 mmHg) |  | 
123% | 7.26 | Cn1ncc2c(-c3nc(N)c4c(n3)NC(=O)C4(C)c3ccc(F)cn3)nc(CCC(F)(F)C(F)(F)F)nc21 (stereo not drawn) [Example 1, 4-Amino-5-(5-fluoropyridin-2-yl)-5-methyl-2-(1-methyl-6-(3,3,4,4,4-pentafluorobutyl)-1H-pyrazolo[3,4-d]pyrimidin-4-yl)-5H-pyrrolo[2,3-d]pyrimidin-6(7H)-one] |  | C (Category C=SBP in SHRs >25 mmHg) | 
117% | 6.98 | Cn1ncc2c(-c3nc(N)c4c(n3)NC(=O)C4(C)c3ccc(F)cn3)nc(CC3CC(F)(F)C3)nc21 (stereo not drawn) [Example 3, 4-Amino-2-(6-((3,3-difluorocyclobutyl)methyl)-1-methyl-1H-pyrazolo[3,4-d]pyrimidin-4-yl)-5-(5-fluoropyridin-2-yl)-5-methyl-5,7-dihydro-6H-pyrrolo[2,3-d]pyrimidin-6-one] |  | C (Category C=SBP in SHRs >25 mmHg) | 
115% | 7.27 | Cn1ncc2c(-c3nc(N)c4c(n3)NC(=O)C4(C)c3ccc(F)cn3)nc(CCCC(F)(F)F)nc21 (stereo not drawn) [Example 4, 4-Amino-5-(5-fluoropyridin-2-yl)-5-methyl-2-(1-methyl-6-(4,4,4-trifluorobutyl)-1H-pyrazolo[3,4-d]pyrimidin-4-yl)-5H-pyrrolo[2,3-d]pyrimidin-6(7H)-one] |  | B (Category B=SBP in SHRs 15-25 mmHg) | 
